Laboratory results taken from patent US9763961B2, “Compositions that modulate the activity of estrogen receptors and estrogen-related receptors and methods for use” (CITY OF HOPE, priority 2005, dated 2017).

Assays:
Format in all cases: cell-based
[1] = test system: ERRα with coactivators GRIP-1 and PGC-1a; assay: Coactivator (GRIP-1, PGC-1a)-induced ERRα activity, Gal4-TK-Luc cotransfection in HeLa cells; settings: GRIP-1 and PGC-1a cotransfection, FIG. 3
From the text: To further confirm the antagonism of chalcones, the effect of Compound No. 1-9 on the interaction between ERRα and coactivators (GRIP-1 and PGC-1a) were investigated. HeLa cells were cotransfected with GAL4-binding site containing luciferase reporter and the expression plasmids for ERRα, GRIP-1 and PGC-1a. The ERRα activity was induced 5-fold and 13-fold by cotransfection with GRIP-1 and PGC-1 a, respectively.
Referring to FIG. 3, cotransfection experiments with GAL4-binding site containing luciferase reporter (Gal4-TK-Luc; 0.5 μg) and the expression plasmids for ERRα (pM-ERRα LBD; 0.5 μg), GRIP-1 (pSG5-GRIP-1; 0.5 μg) and PGC-1a(pSG5-PGC-1α; 0.25 μg) were performed in HeLa cells. Values represent the mean±SD.

[2] = test system: aromatase in HepG2 cells; assay: In-cell aromatase assay in HepG2 cells; settings: 24 h, FIG. 6C
Protocol: (§1) To evaluate the effect of chalcones on aromatase activity, we performed both in vitro assay and in-cell assay with chalcones. […] In addition, MCF-7 aro cells, which are stable aromatase-expressing breast cancer cell line, were incubated with chalcones.
(§2) Referring to FIG. 6, the effect of Compound No. 1-9 on aromatase activity was investigated by both in vitro inhibition assay (A) and in-cell aromatase assay (B; MCF-7 aro cells, C; HepG2 cells, D; SK-BR-3 cells). Referring to FIG. 6A, aromatase inhibition study with Compound No. 1-9 was performed on a human placental microsomal aromatase preparation using the assay procedures described in (9). Referring to FIG. 6B, MCF-7 aro cells, which are stable aromatase-expressing cell line generated in our laboratory (10), were incubated with 10 μM of Compound No. 1-9. After 24 h incubation, aromatase activity was measured by [3H] H20 release method. HepG2 cells, as shown in FIG. 6C and SK-BR-3 cells as shown in FIG. 6D were also incubated with Compound No. 1-9 for 24 h, and aromatase activities were measured. Values represent the mean±SD.

[3] = test system: aromatase in SK-BR-3 cells; assay: In-cell aromatase assay in SK-BR-3 cells; settings: 24 h, FIG. 6D
Protocol: as §1, §2

[4] = molecular target: T1, ERRα (Homo sapiens, UniProt P11474); assay: Transient transfection assays, relative luciferase activity for ERRα (FIG. 7)
T1 sequence (P11474 1-423): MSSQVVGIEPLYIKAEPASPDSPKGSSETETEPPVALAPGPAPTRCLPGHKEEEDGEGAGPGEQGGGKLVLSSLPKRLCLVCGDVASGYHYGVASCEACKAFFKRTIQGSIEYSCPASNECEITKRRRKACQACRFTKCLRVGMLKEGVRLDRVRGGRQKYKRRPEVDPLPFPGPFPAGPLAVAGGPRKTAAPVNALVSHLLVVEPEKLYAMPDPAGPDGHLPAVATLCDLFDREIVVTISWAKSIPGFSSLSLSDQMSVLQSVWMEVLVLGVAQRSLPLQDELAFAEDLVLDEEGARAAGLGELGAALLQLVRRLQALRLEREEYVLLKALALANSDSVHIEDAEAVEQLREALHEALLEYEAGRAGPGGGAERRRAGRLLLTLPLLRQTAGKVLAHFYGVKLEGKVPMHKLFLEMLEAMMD
Protocol: HeLa cells were cultured in MEM Earle's salts medium supplemented with 5% charcoal/dextran-treated fetal bovine serum. Cells were then divided and cultured in 6-well plates until 80% confluence was achieved. The cells were next transfected with 4 μg Lipofectin. An equal amount of total DNA was used in all transfections by including appropriate amounts of the empty vector, pSG5, in addition to specific amounts of pSG5-ERRα and luciferase reporter plasmids (ERRE (ERRα recognizes an ERE half site)-containing reporter and aromatase promoter I.3-containing reporter). Following an overnight incubation, the medium containing Lipofectin and DNA was removed, and the cells cultured in a growth medium containing 5% charcoal/dextran-treated fetal bovine serum with or without ligands. After a 24-hour incubation, the cells was harvested from the plates by scraping, and the luciferase activities in the cell lysates (with the same amounts of protein) was measured according to the manufacturer's instructions (Promega). All experiments were performed in triplicate.
Referring to FIG. 2, we have also prepared GAL4-ERRα expression plasmid and luciferase reporter plasmids with GAL4 response element. This is a more sensitive assay method than that using pSG5-ERRα and ERE luciferase reporter plasmids.
The 2-methoxyl group may be important for the antagonistic activity of the chalcone. […]

For `COc1cccc(/C=C/C(=O)c2ccc(O)cc2O)c1OC` [Compound No. 1-9, 2′,4′-Dihydroxy-2,3-dimethoxychalcone], the “Effect on coactivator-induced ERRα activity” value [1] was “suppressed the coactivator-induced ERRα activity in a dose-dependent manner”, the “Effect on aromatase activity, HepG2 cells” value [2] was “inhibited aromatase activity in a dose-dependent manner” and the “Effect on aromatase activity, SK-BR-3 cells” value [3] was “inhibited aromatase activity in a dose-dependent manner”. The “Effect on constitutive activity of ERRα (relative luciferase activity)” value ([4]; compared to DMSO control, FIG. 7) was “can suppress the constitutive activity of ERRα” and the IC50 ([4]; read-out: IC50 values through transient transfection assays) was 700 to 2000 nM.
